# Reference: ChEMBL document CHEMBL3885881, “DrugMatrix”
# Species on record: Rattus norvegicus
# Assay: DrugMatrix - Regimen: Daily Repeat
# Assay type: toxicity, organism-based, Sprague-Dawley
# Design: regimen Daily Repeat, gender Male, age 6-8 weeks
# Settings: in vivo, po, route oral GAVAGE, vehicle .5 % CMC; for ABSOLUTE BASOPHIL / ABSOLUTE EOSINOPHIL / ABSOLUTE LYMPHOCYTE / ABSOLUTE MONOCYTE / ABSOLUTE SEGMENTED NEUTROPHIL / BASOPHIL / EOSINOPHIL / ERYTHROCYTE COUNT / HEMATOCRIT / HEMOGLOBIN / LEUKOCYTE COUNT / LYMPHOCYTE / MEAN CORPUSCULAR HEMOGLOBIN / MEAN CORPUSCULAR HEMOGLOBIN CONCENTRATION / MEAN CORPUSCULAR VOLUME / MONOCYTE / NEUTROPHIL / NUCLEATED RED BLOOD CELLS / PLATELET COUNT: tissue Blood; for ALANINE AMINOTRANSFERASE / ALBUMIN / ALKALINE PHOSPHATASE / ASPARTATE AMINOTRANSFERASE / BLOOD UREA NITROGEN / CARBON DIOXIDE / CHLORIDE / CHOLESTEROL / CREATINE PHOSPHOKINASE / CREATININE / GLUCOSE / LACTATE DEHYDROGENASE / LIPASE / PHOSPHORUS / POTASSIUM / SODIUM / TOTAL BILIRUBIN / TOTAL PROTEIN / URIC ACID: tissue Plasma
# [1] = 34 mg/kg, 72 h, dose level Low, time 3 day
# [2] = 34 mg/kg, 120 h, dose level Low, time 5 day
# [3] = 364 mg/kg, 72 h, dose level High, time 3 day
# [4] = 364 mg/kg, 120 h, dose level High, time 5 day
compound,measurement,setting,value
Cc1cccc(Nc2cc(Cl)nc(SCC(=O)O)n2)c1C [PIRINIXIC ACID],ABSOLUTE BASOPHIL,[1],0 CELLS/uL
same,ABSOLUTE EOSINOPHIL,[1],24.33 CELLS/uL
same,ABSOLUTE LYMPHOCYTE,[1],9231.67 CELLS/uL
same,ABSOLUTE MONOCYTE,[1],145 CELLS/uL
same,ABSOLUTE SEGMENTED NEUTROPHIL,[1],1199 CELLS/uL
same,BASOPHIL,[1],0%
same,EOSINOPHIL,[1],0.33%
same,ERYTHROCYTE COUNT,[1],5.01 x10E6/uL
same,HEMATOCRIT,[1],31.77%
same,HEMOGLOBIN,[1],11.67 G/DL
same,LEUKOCYTE COUNT,[1],10.6 x10E3/uL
same,LYMPHOCYTE,[1],85.67%
same,MEAN CORPUSCULAR HEMOGLOBIN,[1],23.3 pg
same,MEAN CORPUSCULAR HEMOGLOBIN CONCENTRATION,[1],36.7 G/DL
same,MEAN CORPUSCULAR VOLUME,[1],63.5 fL
same,MONOCYTE,[1],1.67%
same,NEUTROPHIL,[1],12.33%
same,NUCLEATED RED BLOOD CELLS,[1],0 /100WBC
same,PLATELET COUNT,[1],1123.33 x10E3/uL
same,ALANINE AMINOTRANSFERASE,[1],55.67 u/L
same,ALBUMIN,[1],4.73 G/DL
same,ALKALINE PHOSPHATASE,[1],457.33 u/L
same,ASPARTATE AMINOTRANSFERASE,[1],87.33 u/L
same,BLOOD UREA NITROGEN,[1],13.33 mg/dL
same,CARBON DIOXIDE,[1],36.67 mmol/L
same,CHLORIDE,[1],100.33 MEQ/L
same,CHOLESTEROL,[1],52.67 mg/dL
same,CREATINE PHOSPHOKINASE,[1],447.33 u/L
same,CREATININE,[1],0.17 mg/dL
same,GLUCOSE,[1],140 mg/dL
same,LACTATE DEHYDROGENASE,[1],140 u/L
same,LIPASE,[1],8 u/L
same,PHOSPHORUS,[1],12.6 mg/dL
same,POTASSIUM,[1],6.61 MEQ/L
same,SODIUM,[1],143.77 MEQ/L
same,TOTAL BILIRUBIN,[1],0.1 mg/dL
same,TOTAL PROTEIN,[1],5.83 G/DL
same,URIC ACID,[1],0.87 mg/dL
same,ABSOLUTE BASOPHIL,[2],0 CELLS/uL
same,ABSOLUTE EOSINOPHIL,[2],0 CELLS/uL
same,ABSOLUTE LYMPHOCYTE,[2],7298 CELLS/uL
same,ABSOLUTE MONOCYTE,[2],306 CELLS/uL
same,ABSOLUTE SEGMENTED NEUTROPHIL,[2],1029.33 CELLS/uL
same,BASOPHIL,[2],0%
same,EOSINOPHIL,[2],0%
same,ERYTHROCYTE COUNT,[2],5.39 x10E6/uL
same,HEMATOCRIT,[2],34.73%
same,HEMOGLOBIN,[2],13.23 G/DL
same,LEUKOCYTE COUNT,[2],8.63 x10E3/uL
same,LYMPHOCYTE,[2],84.33%
same,MEAN CORPUSCULAR HEMOGLOBIN,[2],24.57 pg
same,MEAN CORPUSCULAR HEMOGLOBIN CONCENTRATION,[2],38.13 G/DL
same,MEAN CORPUSCULAR VOLUME,[2],64.5 fL
same,MONOCYTE,[2],3.67%
same,NEUTROPHIL,[2],12%
same,NUCLEATED RED BLOOD CELLS,[2],0 /100WBC
same,PLATELET COUNT,[2],1176.33 x10E3/uL
same,ALANINE AMINOTRANSFERASE,[2],55 u/L
same,ALBUMIN,[2],4.63 G/DL
same,ALKALINE PHOSPHATASE,[2],445.33 u/L
same,ASPARTATE AMINOTRANSFERASE,[2],92.67 u/L
same,BLOOD UREA NITROGEN,[2],10 mg/dL
same,CARBON DIOXIDE,[2],27.67 mmol/L
same,CHLORIDE,[2],105 MEQ/L
same,CHOLESTEROL,[2],39.67 mg/dL
same,CREATINE PHOSPHOKINASE,[2],609.67 u/L
same,CREATININE,[2],0.19 mg/dL
same,GLUCOSE,[2],179 mg/dL
same,LACTATE DEHYDROGENASE,[2],166.33 u/L
same,LIPASE,[2],9.33 u/L
same,PHOSPHORUS,[2],13.63 mg/dL
same,POTASSIUM,[2],5.28 MEQ/L
same,SODIUM,[2],147.67 MEQ/L
same,TOTAL BILIRUBIN,[2],0.0333 mg/dL
same,TOTAL PROTEIN,[2],6.17 G/DL
same,URIC ACID,[2],1.6 mg/dL
same,ABSOLUTE BASOPHIL,[3],0 CELLS/uL
same,ABSOLUTE EOSINOPHIL,[3],0 CELLS/uL
same,ABSOLUTE LYMPHOCYTE,[3],6159.33 CELLS/uL
same,ABSOLUTE MONOCYTE,[3],64.67 CELLS/uL
same,ABSOLUTE SEGMENTED NEUTROPHIL,[3],442.67 CELLS/uL
same,BASOPHIL,[3],0%
same,EOSINOPHIL,[3],0%
same,ERYTHROCYTE COUNT,[3],5.12 x10E6/uL
same,HEMATOCRIT,[3],32.3%
same,HEMOGLOBIN,[3],11.83 G/DL
same,LEUKOCYTE COUNT,[3],6.67 x10E3/uL
same,LYMPHOCYTE,[3],92.33%
same,MEAN CORPUSCULAR HEMOGLOBIN,[3],23.17 pg
same,MEAN CORPUSCULAR HEMOGLOBIN CONCENTRATION,[3],36.63 G/DL
same,MEAN CORPUSCULAR VOLUME,[3],63.17 fL
same,MONOCYTE,[3],1%
same,NEUTROPHIL,[3],6.67%
same,NUCLEATED RED BLOOD CELLS,[3],0 /100WBC
same,PLATELET COUNT,[3],1033.67 x10E3/uL
same,ALANINE AMINOTRANSFERASE,[3],53.33 u/L
same,ALBUMIN,[3],4.73 G/DL
same,ALKALINE PHOSPHATASE,[3],564 u/L
same,ASPARTATE AMINOTRANSFERASE,[3],87 u/L
same,BLOOD UREA NITROGEN,[3],12.67 mg/dL
same,CARBON DIOXIDE,[3],35.33 mmol/L
same,CHLORIDE,[3],102.33 MEQ/L
same,CHOLESTEROL,[3],49.67 mg/dL
same,CREATINE PHOSPHOKINASE,[3],282.33 u/L
same,CREATININE,[3],0.2 mg/dL
same,GLUCOSE,[3],142.33 mg/dL
same,LACTATE DEHYDROGENASE,[3],143.67 u/L
same,LIPASE,[3],8.67 u/L
same,PHOSPHORUS,[3],12.8 mg/dL
same,POTASSIUM,[3],6.58 MEQ/L
same,SODIUM,[3],147.03 MEQ/L
same,TOTAL BILIRUBIN,[3],0.1 mg/dL
same,TOTAL PROTEIN,[3],5.67 G/DL
same,URIC ACID,[3],1 mg/dL
same,ABSOLUTE BASOPHIL,[4],0 CELLS/uL
same,ABSOLUTE EOSINOPHIL,[4],0 CELLS/uL
same,ABSOLUTE LYMPHOCYTE,[4],6969 CELLS/uL
same,ABSOLUTE MONOCYTE,[4],193.33 CELLS/uL
same,ABSOLUTE SEGMENTED NEUTROPHIL,[4],904.33 CELLS/uL
same,BASOPHIL,[4],0%
same,EOSINOPHIL,[4],0%
same,ERYTHROCYTE COUNT,[4],5.24 x10E6/uL
same,HEMATOCRIT,[4],32.1%
same,HEMOGLOBIN,[4],12.47 G/DL
same,LEUKOCYTE COUNT,[4],8.07 x10E3/uL
same,LYMPHOCYTE,[4],87.33%
same,MEAN CORPUSCULAR HEMOGLOBIN,[4],23.8 pg
same,MEAN CORPUSCULAR HEMOGLOBIN CONCENTRATION,[4],38.8 G/DL
same,MEAN CORPUSCULAR VOLUME,[4],61.27 fL
same,MONOCYTE,[4],2.33%
same,NEUTROPHIL,[4],10.33%
same,NUCLEATED RED BLOOD CELLS,[4],0 /100WBC
same,PLATELET COUNT,[4],1189 x10E3/uL
same,ALANINE AMINOTRANSFERASE,[4],57 u/L
same,ALBUMIN,[4],5 G/DL
same,ALKALINE PHOSPHATASE,[4],591 u/L
same,ASPARTATE AMINOTRANSFERASE,[4],173 u/L
same,BLOOD UREA NITROGEN,[4],15.33 mg/dL
same,CARBON DIOXIDE,[4],35 mmol/L
same,CHLORIDE,[4],101.67 MEQ/L
same,CHOLESTEROL,[4],56.67 mg/dL
same,CREATINE PHOSPHOKINASE,[4],895.67 u/L
same,CREATININE,[4],0.17 mg/dL
same,GLUCOSE,[4],139.67 mg/dL
same,LACTATE DEHYDROGENASE,[4],272.67 u/L
same,LIPASE,[4],9 u/L
same,PHOSPHORUS,[4],11.73 mg/dL
same,POTASSIUM,[4],6.36 MEQ/L
same,SODIUM,[4],146.87 MEQ/L
same,TOTAL BILIRUBIN,[4],0.0667 mg/dL
same,TOTAL PROTEIN,[4],6.1 G/DL
same,URIC ACID,[4],1.1 mg/dL
